Key:
rhesus H3 receptor [1] = molecular target: T1, rhesus H3 receptor (Macaca mulatta, UniProt Q865E1); test: GTPγS radioligand binding assay, inhibition of rhesus H3 constitutive functional activity (inverse agonism); format: biochemical, rhesus monkey (Macacca Mulatta); parameters: concentration or dose not given beside the values; details: rhesus H3 cell membranes, relative to basal levels
Procedure: (§1) Rhesus H3 membranes were prepared from the Flp-In T-REx 293 Cell Line (Invitrogen) stably transfected with pcDNA5/FRT/TO (Invitrogen) containing the rhesus monkey (Macacca Mulatta) 445 amino acid H3 receptor. (Genbank #AY231164). Stably transfected cultures were amplified in tissue culture flasks by standard tissue culture methods and induced to express rhesus H3 by exposure to 500 ng/ml tetracycline (Cellgro) for 24 hours. After induction, cells were dissociated from flasks utilizing Cell Stripper (Cellgro). Cells were centrifuged (1K×g, 5 min) and pellet frozen in an ethanol-dry ice bath to disrupt cell membranes. Frozen cell pellet was re-suspended in 5 mM HEPES (pH 7.4, Invitrogen) at 10 ml/1000 cm2 of harvested cells. The cell suspension was drawn through an 18 gauge needle (2-3×) followed by a 23 gauge needle (2-3×) to further disrupt cell membranes. The cell suspension was centrifuged (40K×g, 30 min). Cell membrane pellet was re-suspended in 5 mM HEPES (pH 7.4, Invitrogen) at a final protein concentration of 10 mg/ml. Rhesus H3 membranes were stored under liquid nitrogen prior to use in [3H]-Methylhistamine and GTP S radioligand binding assays.

rhesus H3 receptor [2] = molecular target: T1, rhesus H3 receptor; test: Rhesus H3 [3H]-methylhistamine radioligand binding assay; parameters: species or system rhesus monkey (Macacca Mulatta); details: [3H]-Methylhistamine 2 nM, rhesus H3 membranes, WGA SPA beads, Cheng-Prusoff
Procedure: as §1
Rhesus H3 radioligand binding assay was performed using rhesus H3 receptor membranes (prepared as described above), [3H]-Methylhistamine (Perkin Elmer) and WGA SPA beads (wheat germ agglutinin scintillation proximity assay) beads (Amersham). The assay was performed in 96-well Opti-Plates (Packard). Each reaction contained 50 μl rhesus H3 membranes (20-30 μg total protein), 50 μl WGA SPA beads (0.1 μg) and 50 μl of 83 Ci/mmol [^3H]-Methylhistamine (final concentration 2 nM) and 50 μl of tested compound. The compounds of this invention and/or vehicle were diluted with binding buffer from 10 mM DMSO stocks. Assay plates were sealed with TopSeal (Perkin Elmer) and mixed on shaker (25° C., 1 hour). Assay plates were read on TopCount scintillation counter (Packard). Results were analyzed by Hill transformation and Ki values were determined by Cheng-Prusoff equation.

T1 sequence (Q865E1 1-445): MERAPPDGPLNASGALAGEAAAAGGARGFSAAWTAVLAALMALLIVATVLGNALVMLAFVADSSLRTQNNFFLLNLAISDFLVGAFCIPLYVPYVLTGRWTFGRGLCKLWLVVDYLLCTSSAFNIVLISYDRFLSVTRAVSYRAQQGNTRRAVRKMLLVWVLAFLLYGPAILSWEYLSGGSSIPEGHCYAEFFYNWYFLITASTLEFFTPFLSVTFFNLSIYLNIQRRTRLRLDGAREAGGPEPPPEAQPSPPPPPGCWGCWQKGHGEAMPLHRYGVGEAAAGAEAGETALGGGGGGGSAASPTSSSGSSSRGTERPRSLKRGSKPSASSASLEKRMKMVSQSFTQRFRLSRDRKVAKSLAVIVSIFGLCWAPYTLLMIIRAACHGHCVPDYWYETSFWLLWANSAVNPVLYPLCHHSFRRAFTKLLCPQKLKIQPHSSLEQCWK

SMILES	Inverse Agonism: % inhibition of Basal GTPγS binding in Rhesus H3 (rhesus H3 receptor [1])	Ki (rhesus H3 receptor [2])
Cc1cc(N2CC[C@H](N3CCC[C@H]3C)C2)ccc1N1CCC2(CCN(C(=O)OC(C)(C)C)CC2)C1=O [Example 1, 2-[2-Methyl-4-((2R,3′S)-2-methyl-[1,3′]bipyrrolidinyl-1′-yl)-phenyl]-1-oxo-2,8-diaza-spiro[4.5]decane-8-carboxylic acid tert-butyl ester]	−24%	132 nM
C[C@H]1CCCN1C1CCN(c2ccc(N3CCC4(CCNCC4)C3=O)c(C(F)(F)F)c2)CC1.Cl [Example 45, 2-{4-[4-(2S-2-Methyl-pyrrolidin-1-yl)-piperidin-1-yl]-2-trifluoromethyl-phenyl}-2,8-diaza-spiro[4.5]decan-1-one Hydrochloride]	−19%	0.15 nM
C[C@H]1CCCCN1[C@H]1CCN(c2ccc(N3CCC4(CCN(C(=O)OC(C)(C)C)CC4)C3=O)c(F)c2)C1 [Example 43, 2-{4-[3-((2S,3′S)-2-Methyl-piperidin-1-yl)-pyrrolidin-1-yl]-2-fluoro-phenyl}-1-oxo-2,8-diaza-spiro[4.5]decane-8-carboxylic acid tert-butyl ester]	−19%	4.3 nM
C[C@H]1CCCN1C1CCN(c2ccc(N3CCC4(CCN(S(=O)(=O)c5ccccc5)CC4)C3=O)cc2)CC1 [Example 50, 8-Benzenesulfonyl-2-{4-[4-(2S-2-methyl-pyrrolidin-1-yl)-piperidin-1-yl]-phenyl}-2,8-diaza-spiro[4.5]decan-1-one]	−23%	0.24 nM
C[C@H]1CCCN1C1CCN(c2ccc(N3CCC4(CCN(C(=O)C5CCCCC5)CC4)C3=O)c(F)c2)CC1 [Example 52, 8-Cyclohexanecarbonyl-2-{2-fluoro-4-[4-(2S-2-methyl-pyrrolidin-1-yl)-piperidin-1-yl]-phenyl}-2,8-diaza-spiro[4.5]decan-1-one]	−24%	0.2 nM
Cc1cc(N2CC[C@@H](N3CCC[C@H]3C)C2)ccc1N1CCC2(CCNCC2)C1=O.Cl [Example 7, 2-[2-Methyl-4-((2R,3′R)-2-methyl-[1,3′]bipyrrolidinyl-1′-yl)-phenyl]-2,8-diaza-spiro[4.5]decan-1-one Hydrochloride]	−22%	15 nM
Cc1cc(N2CC[C@H](N3CCC[C@@H]3C)C2)ccc1N1CCCC2(CCN(C(C)C)CC2)C1=O [Example 32, 9-Isopropyl-2-[2-methyl-4-((2S,3′S)-2-methyl-[1,3′]bipyrrolidinyl-1′-yl)-phenyl]-2,9-diaza-spiro[5.5]undecan-1-one]	−14%	0.4 nM
C[C@H]1CCCCN1[C@H]1CCN(c2ccc(N3CCC4(CCN(C(=O)C5CCOCC5)CC4)C3=O)cc2)C1 [Example 54, 2-{4-[3-((2S,3′S)-2-Methyl-piperidin-1-yl)-pyrrolidin-1-yl]-phenyl}-8-(tetrahydro-pyran-4-carbonyl)-2,8-diaza-spiro[4.5]decan-1-one]	−24%	3.3 nM
Cc1cc(N2CC[C@H](N3CCC[C@H]3C)C2)ccc1N1CCC2(CCNCC2)C1=O.Cl [Example 8, 2-[2-Methyl-4-((2R,3′S)-2-methyl-[1,3′]bipyrrolidinyl-1′-yl)-phenyl]-2,8-diaza-spiro[4.5]decan-1-one Hydrochloride]	−26%	0.8 nM
C[C@H]1CCCN1[C@H]1CCN(c2ccc(N3CCC4(CCN(C(=O)c5ccccc5)CC4)C3=O)c(C(F)(F)F)c2)C1 [Example 63, 8-Benzoyl-2-[4-((2S,3′S)-2-methyl-[1,3′]bipyrrolidinyl-1′-yl)-2-trifluoromethyl-phenyl]-2,8-diaza-spiro[4.5]decan-1-one]	−18%	64 nM
C[C@H]1CCCCN1[C@H]1CCN(c2ccc(N3CCC4(CCNCC4)C3=O)c(C(F)(F)F)c2)C1.Cl [Example 48, 2-{4-[3-((2S,3′S)-2-Methyl-piperidin-1-yl)-pyrrolidin-1-yl]-2-trifluoromethyl-phenyl}-2,8-diaza-spiro[4.5]decan-1-one Hydrochloride]	−24%	0.6 nM
C[C@H]1CCCN1[C@H]1CCN(c2ccc(N3CCCC4(CCN(CC5CC5)CC4)C3=O)cc2)C1 [Example 34, 9-Cyclopropylmethyl-2-[4-((2S,3′S)-2-methyl-[1,3′]bipyrrolidinyl-1′-yl)-phenyl]-2,9-diaza-spiro[5.5]undecan-1-one]	−16%	0.2 nM
C[C@H]1CCCN1C1CCN(c2ccc(N3CCC4(CCNCC4)C3=O)cc2)CC1.Cl [Example 44, 2-{4-[4-(2S-2-Methyl-pyrrolidin-1-yl)-piperidin-1-yl]-phenyl}-2,8-diaza-spiro[4.5]decan-1-one Hydrochloride]	−19%	0.1 nM
Cc1cc(N2CC[C@H](N3CCC[C@@H]3C)C2)ccc1N1CCCC2(CCN(C(=O)c3ccoc3)CC2)C1=O [Example 27, 9-(Furan-3-carbonyl)-2-[2-methyl-4-((2S,3′S)-2-methyl-[1,3′]bipyrrolidinyl-1′-yl)-phenyl]-2,9-diaza-spiro[5.5]undecan-1-one]	−19%	1.6 nM
C[C@H]1CCCN1[C@H]1CCN(c2ccc(N3CCC4(CCN(C(=O)c5ccoc5)CC4)C3=O)c(C(F)(F)F)c2)C1 [Example 64, 8-(Furan-3-carbonyl)-2-[4-((2S,3′S)-2-methyl-[1,3′]bipyrrolidinyl-1′-yl)-2-trifluoromethyl-phenyl]-2,8-diaza-spiro[4.5]decan-1-one]	−19%	9.6 nM
C[C@H]1CCCN1C1CCN(c2ccc(N3CCC4(CCNCC4)C3=O)c(F)c2)CC1.Cl [Example 46, 2-{4-[4-(2S-2-Methyl-pyrrolidin-1-yl)-piperidin-1-yl]-2-fluoro-phenyl}-2,8-diaza-spiro[4.5]decan-1-one Hydrochloride]	−24%	0.1 nM
C[C@H]1CCCCN1[C@H]1CCN(c2ccc(N3CCC4(CCN(C(=O)OC(C)(C)C)CC4)C3=O)c(C(F)(F)F)c2)C1 [Example 42, 2-{4-[3-((2S,3′S)-2-Methyl-piperidin-1-yl)-pyrrolidin-1-yl]-2-trifluoromethyl-phenyl}-1-oxo-2,8-diaza-spiro[4.5]decane-8-carboxylic acid tert-butyl ester]	−15%	64 nM
C[C@H]1CCCN1[C@H]1CCN(c2ccc(N3CCCC4(CCN(C(=O)c5ccc(F)cc5)CC4)C3=O)cc2)C1 [Example 29]	−17%	0.4 nM
C[C@H]1CCCN1C1CCN(c2ccc(N3CCC4(CCN(C(=O)OC(C)(C)C)CC4)C3=O)c(F)c2)CC1 [Example 40, 2-{4-[4-(2S-2-Methyl-pyrrolidin-1-yl)-piperidin-1-yl]-2-fluoro-phenyl}-1-oxo-2,8-diaza-spiro[4.5]decane-8-carboxylic acid tert-butyl ester]	−21%	–

Source: patent US8604046B2, “Substituted piperidine spiro pyrrolidinone and piperidinone, preparation and therapeutic use thereof” (Sanofi, priority 2008, dated 2013)
